Results published in patent publication US20240166770A1, “COMPOSITIONS AND METHODS FOR INHIBITION OF CELL-PENETRATING ANTIBODIES” (Yale University, priority 2019, published 2024).
Where two headings read alike, the source gives them in different places.

B1: h3E10 di-scFv: modified, humanized 3E10 lupus autoantibody di-scFv, SEQ ID NO:70, Variant 13 (protein)
scFv: DIQMTQSPSSLSASLGDRATITCRASKTVSTSSYSYMHWYQQKPGQPPKLLIKYASYLESGVPSRFSGSGSGTDFTLTISSLQPEDAATYYCQHSREFPWTFGGGTKVEIKRADAAPGGGGSGGGGSGGGGSEVQLVESGGGLVQPGGSLRLSCAASGFTFSNYGMHWVRQAPGKGLEWVSYISSGSSTIYYADSVKGRFTISRDNAKNSLYLQMNSLRAEDTAVYYCARRGLLLDYWGQGTTVTVSSASTKGPSVFPLAPLESSGSDIQMTQSPSSLSASLGDRATITCRASKTVSTSSYSYMHWYQQKPGQPPKLLIKYASYLESGVPSRFSGSGSGTDFTLTISSLQPEDAATYYCQHSREFPWTFGGGTKVEIKRADAAPGGGGSGGGGSGGGGSEVQLVESGGGLVQPGGSLRLSCAASGFTFSNYGMHWVRQAPGKGLEWVSYISSGSSTIYYADSVKGRFTISRDNAKNSLYLQMNSLRAEDTAVYYCARRGLLLDYWGQGTTVTVSS

What was measured:
ENT2 [1] = target: T1, ENT2 (Homo sapiens, UniProt Q14542); conditions: ENT2-dependent transduction; cited from earlier work
T1 sequence (Q14542 1-456): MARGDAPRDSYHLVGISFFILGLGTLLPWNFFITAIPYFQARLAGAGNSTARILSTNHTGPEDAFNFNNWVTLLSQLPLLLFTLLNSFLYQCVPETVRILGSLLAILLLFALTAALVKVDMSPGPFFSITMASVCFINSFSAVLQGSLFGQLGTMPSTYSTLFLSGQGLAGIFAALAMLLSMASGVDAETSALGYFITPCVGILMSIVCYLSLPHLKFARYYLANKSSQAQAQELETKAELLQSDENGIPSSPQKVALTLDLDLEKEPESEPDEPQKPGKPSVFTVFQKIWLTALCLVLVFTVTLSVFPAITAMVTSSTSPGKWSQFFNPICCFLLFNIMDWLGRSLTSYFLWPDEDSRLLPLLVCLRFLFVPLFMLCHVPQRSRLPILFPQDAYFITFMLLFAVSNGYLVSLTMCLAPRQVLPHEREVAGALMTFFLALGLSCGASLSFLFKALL

hENT4 [2] = target: T2, hENT4 (Homo sapiens, UniProt Q7RTT9); conditions: cited from earlier work
T2 sequence (Q7RTT9 1-530): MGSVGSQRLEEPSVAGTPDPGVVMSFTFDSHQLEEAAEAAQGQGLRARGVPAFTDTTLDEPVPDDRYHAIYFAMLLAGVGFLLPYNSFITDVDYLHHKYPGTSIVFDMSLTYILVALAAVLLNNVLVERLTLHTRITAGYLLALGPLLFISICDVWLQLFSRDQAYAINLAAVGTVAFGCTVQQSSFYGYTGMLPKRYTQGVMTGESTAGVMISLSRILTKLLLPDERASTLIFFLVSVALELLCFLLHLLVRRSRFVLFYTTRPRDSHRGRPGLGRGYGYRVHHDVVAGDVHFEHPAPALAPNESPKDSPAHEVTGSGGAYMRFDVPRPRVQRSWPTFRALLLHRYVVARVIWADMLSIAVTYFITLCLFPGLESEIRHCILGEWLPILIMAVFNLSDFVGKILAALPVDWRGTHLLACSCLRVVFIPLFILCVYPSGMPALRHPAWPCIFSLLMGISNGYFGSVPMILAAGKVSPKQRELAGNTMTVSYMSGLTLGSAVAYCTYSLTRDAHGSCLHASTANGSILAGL

ENT2 [3] = target: T1, ENT2; conditions: Ward et al. 2000; SenGupta et al. 2002; cited from earlier work
ENT2 [4] = target: T1, ENT2; conditions: Table 1, different ring systems at the 4- and 8-positions; cited from earlier work
hENT4 [5] = target: T2, hENT4; conditions: Table 1, different ring systems at the 4- and 8-positions; cited from earlier work
[6] = test system: TNBC brain metastases (231-BR cells); assay type: in vivo; conditions: 20 mg/kg tail vein 3x/week for 4 weeks
Description: TNBC brain metastases were generated in mice by intracardiac injection of luciferase-expressing 231-BR cells. Mice were treated with tail vein injection of control (PBS) or h3E10 di-scFv (20 mg/kg) 3×/week for 4 weeks, and brain metastases were tracked by IVIS.

[7] = test system: hCMEC/D3 Transwell filter BBB model; assay: Transwell filter model of the human BBB (hCMEC/D3 and normal human astrocytes); assay type: in vitro ADME; conditions: basolateral chamber one hour after addition to apical chamber, western blot

Row | Molecule | inhibition of intranuclear transduction of mouse 3E10 Fv (ENT2 [1]) | inhibition of hENT4 (in words) (hENT4 [2]) | IC50 (ENT2 [3]) [nM] | IC50 (ENT2 [4]) [nM] | IC50 (hENT4 [5]) [nM] | growth of brain metastases (radiance by IVIS) [6] | median survival ([6]; control 38 days, P<0.02) [days] | transport of h3E10 di-scFv across Transwell filter BBB model [7]
1 | O=[N+]([O-])c1ccc(CSc2ncnc3c2ncn3[C@@H]2O[C@H](CO)[C@@H](O)[C@H]2O)cc1 [NBMPR] | inhibited | moderate inhibitors | 2800 | 1350 | 2330 | – | – | –
2 | B1 | – | – | – | – | – | Suppresses Tumor Growth | 52 | crosses
